Test results reported in patent US5391571A, “Cholesterol ester hydrolase inhibitors” (priority 1993, dated 1995).

Experiments:
[1] = molecular target: T1, cholesterol esterase (EC 3.1.1.13) (Bos taurus, UniProt P30122); assay: in vitro inhibition of cholesteryl ester formation by cholesterol esterase; assay type: biochemical, bovine; conditions: 37° C., cholesterol and oleic acid, cholesterol esterase from bovine pancreas; read-out: IC50 (concentration that inhibits one-half of the ester formation)
T1 construct: purchased Sigma Chemical Company, St. Louis, Mo., USA C-1892; host or cells: bovine pancreas
T1 sequence (P30122 19-597): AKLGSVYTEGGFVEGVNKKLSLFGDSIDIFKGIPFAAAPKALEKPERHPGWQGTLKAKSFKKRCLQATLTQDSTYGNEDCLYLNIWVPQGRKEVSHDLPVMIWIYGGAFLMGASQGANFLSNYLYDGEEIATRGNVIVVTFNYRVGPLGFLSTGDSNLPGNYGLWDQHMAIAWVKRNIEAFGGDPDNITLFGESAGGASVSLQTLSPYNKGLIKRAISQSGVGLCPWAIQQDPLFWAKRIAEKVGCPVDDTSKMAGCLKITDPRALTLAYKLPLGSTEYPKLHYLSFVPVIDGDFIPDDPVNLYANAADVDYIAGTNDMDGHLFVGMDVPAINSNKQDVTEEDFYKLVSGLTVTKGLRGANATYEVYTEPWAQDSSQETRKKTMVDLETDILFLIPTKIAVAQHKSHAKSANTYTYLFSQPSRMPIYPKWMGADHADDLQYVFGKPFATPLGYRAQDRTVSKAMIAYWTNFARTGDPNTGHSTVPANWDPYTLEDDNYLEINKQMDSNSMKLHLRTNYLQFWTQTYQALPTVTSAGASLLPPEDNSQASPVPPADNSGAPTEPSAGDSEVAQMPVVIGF
Procedure: The ability of the compounds of this invention to inhibit the formation of cholesteryl esters and thereby interfere with and prevent assimilation of cholesterol into the lymphatic system and ultimately the blood stream was established by incubating the compounds at 37° C. with a mixture of cholesterol and oleic acid in the presence of buffered cholesterol esterase [(EC 3.1.1.13) Sigma Chemical Company, St. Louis, Mo., USA, No. C-1892, from bovine pancreas] and measuring the amount of ester formed, according to the procedure of Field, J. of Lipid Research, 25 389 (1984).

cholesterol absorption = assay: in vivo cholesterol absorption study, serum radioactivity after oral [4-^14C] cholesterol; conditions: Rattus norvegicus, 6 h, normal rats, serum radioactivity at six hours; for ED50: read-out: ED50 (effective dose inhibiting fifty percent of the cholesterol absorption of the control animals)
Procedure: The in vivo cholesterol absorption studies were conducted in normal rats by oral administration of the compound being tested in propylene glycol and olive oil followed by oral administration of [4-^14 C] cholesterol in propylene glycol and olive oil, otherwise following the procedure of Cayen et al., J. Lipid Res. 20 162 (1979). The serum radioactivity was measured at six hours after dosing. The results of this study are reported in the following Table, where available, as percent decrease compared to control and in terms of the effective dose (ED50) inhibiting fifty-percent of the absorption of the control animals.

[2] = vs control, read-out: Decrease in [^14C] Cholesterol Absorption

SMILES	IC50 [1] [µM]	inhibition in vivo at 50 mg/kg (cholesterol absorption; [2]) [%]	further results
Cc1ccc(Oc2ccc(OC(=O)N3CCC(C)CC3)cc2)cc1 [Example 23, 4-Methyl-1-piperidinecarboxylic acid 4-(4-methylphenoxy)phenyl ester]	0.27	–	inhibition in vivo at 65 mg/kg (cholesterol absorption; [2]): 43%
CC1CCN(C(=O)Oc2ccc(Oc3ccc(Cl)cc3)cc2)CC1 [Example 25, 4-Methyl-1-piperidinecarboxylic acid 4-(4-chlorophenoxy)phenyl ester]	0.17	–	inhibition in vivo at 65 mg/kg (cholesterol absorption; [2]): 61%
CCC1CCN(C(=O)Oc2ccc(Oc3ccccc3)cc2)CC1 [Example 42, 4-Ethyl-1-piperidinecarboxylic acid 4-phenoxyphenyl ester]	0.05	81	–
O=C(Oc1ccc(Oc2ccccc2)cc1)N1CCCC1 [Example 12, 1-Pyrrolidinecarboxylic acid 4-phenoxyphenyl ester]	0.3	–	inhibition in vivo at 65 mg/kg (cholesterol absorption; [2]): 43%
CC1CCN(C(=O)Oc2ccc(Oc3ccccc3)cc2C(=O)O)CC1 [Example 55]	31.3	16	–
O=C(NCCCCc1ccccc1)Oc1ccc(Oc2ccccc2)cc1 [Example 3, (4-Phenylbutyl)carbamic acid 4-phenoxyphenyl ester]	16	–	inhibition in vivo at 10 mg/kg (cholesterol absorption; [2]): 70%; ED50 (cholesterol absorption): 6 mg/kg
CC1CCN(C(=O)Oc2ccc(Oc3ccccc3)cc2F)CC1 [Example 41, 4-Methyl-1-piperidinecarboxylic acid 2-fluoro-4-phenoxyphenyl ester]	0.03	73	–
CC1(C)CCCN(C(=O)Oc2ccc(Oc3ccccc3)cc2)C1 [Example 47, 3,3-Dimethyl-1-piperidinecarboxylic acid 4-phenoxyphenyl ester]	1.6	–	inhibition in vivo at 20 mg/kg (cholesterol absorption; 20 mg/kg, vs control, read-out: Decrease in [^14C] Cholesterol Absorption): 67%
CCCCNC(=O)Oc1ccc(Oc2ccccc2)cc1 [Example 1, Butylcarbamic acid 4-phenoxyphenyl ester]	2	–	inhibition in vivo at 100 mg/kg (cholesterol absorption; [2]): 82%; ED50 (cholesterol absorption): 24 mg/kg
CCN(CC)CC1CCN(C(=O)Oc2ccc(Oc3ccccc3)cc2)CC1 [Example 60]	> 100	49	–
COc1ccc(Oc2ccc(OC(=O)N3CCC(C)CC3)cc2)cc1 [Example 30, 4-Methyl-1-piperidinecarboxylic acid 4-(4-methoxyphenoxy)phenyl ester]	1.2	–	inhibition in vivo at 65 mg/kg (cholesterol absorption; [2]): 83%
CC[N+](CC)(CC)CC1CCN(C(=O)Oc2ccc(Oc3ccccc3)cc2)CC1 [Example 61, Triethyl 1-[(4-phenoxyphenoxy)carbonyl]-4-piperidinemethanaminium iodide]	> 100	33	–
O=C(O)C1CCN(C(=O)Oc2ccc(Oc3ccccc3)cc2)CC1 [Example 46, 1.4-Piperidinedicarboxylic acid 1-(1-phenoxyphenyl ester)]	44	–	inhibition in vivo at 100 mg/kg (cholesterol absorption; [2]): 55%
O=C(Oc1ccc(Oc2ccccc2)cc1)N1CCC2(CCCC2)CC1 [Example 52, 8-Azaspiro[4,5]decan-8-carboxylic acid 4-phenoxyphenyl ester]	0.75	78	–
CCCC1CCN(C(=O)Oc2ccc(Oc3ccccc3)cc2)CC1 [Example 45, 4Propyl-1-piperidinecarboxylic acid 4-phenoxyphenyl ester]	0.07	–	inhibition in vivo at 10 mg/kg (cholesterol absorption; [2]): 41%
CC(C)CCCC(C)NC(=O)Oc1ccc(Oc2ccccc2)cc1 (stereo not drawn) [Example 4, (1,5-Dimethylhexyl)carbamic acid 4-phenoxyphenyl ester]	5	–	inhibition in vivo at 100 mg/kg (cholesterol absorption; [2]): 89%; ED50 (cholesterol absorption): 13 mg/kg
O=C(Oc1ccc(Oc2ccccc2)cc1)N1CCC(CBr)CC1 [Example 57, 4-(Bromomethyl)-1-piperidinecarboxylic acid, 4-phenoxyphenyl ester]	0.08	87	–
O=C(NC12CC3CC(CC(C3)C1)C2)Oc1ccc(Oc2ccccc2)cc1 [Example 15]	17.5	–	inhibition in vivo at 100 mg/kg (cholesterol absorption; [2]): 76%
